# Values of other authors as cited in patent US4127520A, “Novel nonadecapeptides, intermediates therefor, and compositions and methods employing said nonadecapeptides” (priority 1977, dated 1978).
# Columns and labels:
# [1] = injected directly into the brain of the rat
# [2] = tested on: partially purified brain opiate receptor sites; conditions: natural peptide
substance,measurement,setting,value
H-Tyr-Gly-Gly-Phe-Met-OH [methionine enkephalin],analgesic activity,[1],only weak analgesic agent of short duration
same,binding to partially purified brain opiate receptor sites,[2],binds stereo-specifically
